# Measured values reported in the NIST ThermoML archive (doi:10.1021/je100577v).
# ± gives the expanded uncertainty stated by the source.
# Key:
# [1] = Liquid; for mass density: Vibrating tube method; for vapor or sublimation pressure: Ebulliometric method (Recirculating still)
# [2] = xn = mol fraction of the nth substance listed; details: Liquid, Vibrating tube method, x2 = 0
smiles,measurement,setting,value
"CC12CCC(CC1)C(C)(C)O2 [1,3,3-trimethyl-2-oxabicyclo[2.2.2]octane]",mass density,"[1]; 283.15 K, 20000 kPa",945.9 ± 1 kg/m3
same,mass density,"[1]; 283.15 K, 25000 kPa",949.1 ± 1 kg/m3
same,mass density,"[1]; 283.15 K, 30000 kPa",952 ± 1 kg/m3
same,mass density,"[1]; 283.15 K, 35000 kPa",954.9 ± 1 kg/m3
same,mass density,"[1]; 283.15 K, 40000 kPa",957.6 ± 1 kg/m3
same,mass density,"[1]; 298.15 K, 20000 kPa",934.1 ± 1 kg/m3
same,mass density,"[1]; 298.15 K, 25000 kPa",937.4 ± 1 kg/m3
same,mass density,"[1]; 298.15 K, 30000 kPa",940.5 ± 1 kg/m3
same,mass density,"[1]; 298.15 K, 35000 kPa",943.4 ± 1 kg/m3
same,mass density,"[1]; 298.15 K, 40000 kPa",946.4 ± 1 kg/m3
same,mass density,"[1]; 313.15 K, 20000 kPa",922.3 ± 1 kg/m3
same,mass density,"[1]; 313.15 K, 25000 kPa",925.8 ± 1 kg/m3
same,mass density,"[1]; 313.15 K, 30000 kPa",929.1 ± 1 kg/m3
same,mass density,"[1]; 313.15 K, 35000 kPa",932.4 ± 1 kg/m3
same,mass density,"[1]; 313.15 K, 40000 kPa",935.5 ± 1 kg/m3
same,vapor or sublimation pressure,[1]; 326.65 K,1.33 ± 0.11 kPa
same,mass density,"[1]; 328.15 K, 20000 kPa",910.6 ± 1 kg/m3
same,mass density,"[1]; 328.15 K, 25000 kPa",914.3 ± 1 kg/m3
same,mass density,"[1]; 328.15 K, 30000 kPa",917.9 ± 1 kg/m3
same,mass density,"[1]; 328.15 K, 35000 kPa",921.3 ± 1 kg/m3
same,mass density,"[1]; 328.15 K, 40000 kPa",924.7 ± 1 kg/m3
same,vapor or sublimation pressure,[1]; 341.55 K,2.67 ± 0.11 kPa
same,vapor or sublimation pressure,[1]; 357.25 K,5.33 ± 0.12 kPa
same,vapor or sublimation pressure,[1]; 363.45 K,6.67 ± 0.17 kPa
same,vapor or sublimation pressure,[1]; 381.45 K,13.33 ± 0.21 kPa
same,vapor or sublimation pressure,[1]; 392.75 K,20 ± 0.28 kPa
same,vapor or sublimation pressure,[1]; 401.75 K,26.66 ± 0.35 kPa
same,vapor or sublimation pressure,[1]; 408.65 K,33.33 ± 0.43 kPa
same,vapor or sublimation pressure,[1]; 414.65 K,40 ± 0.48 kPa
same,vapor or sublimation pressure,[1]; 419.95 K,46.66 ± 0.54 kPa
same,vapor or sublimation pressure,[1]; 424.65 K,53.33 ± 0.61 kPa
same,vapor or sublimation pressure,[1]; 428.85 K,60 ± 0.67 kPa
same,vapor or sublimation pressure,[1]; 432.75 K,66.66 ± 0.72 kPa
same,vapor or sublimation pressure,[1]; 436.35 K,73.33 ± 0.77 kPa
same,vapor or sublimation pressure,[1]; 439.75 K,79.99 ± 0.83 kPa
same,vapor or sublimation pressure,[1]; 442.85 K,86.66 ± 0.88 kPa
same,vapor or sublimation pressure,[1]; 445.85 K,93.33 ± 0.9 kPa
same,vapor or sublimation pressure,[1]; 448.65 K,99.61 ± 1.4 kPa
same,vapor or sublimation pressure,[1]; 449.15 K,101.33 ± 1.4 kPa
CCCO [propan-1-ol],mass density,"[1]; 283.15 K, 20000 kPa",825.1 ± 1 kg/m3
same,mass density,"[1]; 283.15 K, 25000 kPa",828.4 ± 1 kg/m3
same,mass density,"[1]; 283.15 K, 30000 kPa",831.5 ± 1 kg/m3
same,mass density,"[1]; 283.15 K, 35000 kPa",834.5 ± 1 kg/m3
same,mass density,"[1]; 283.15 K, 40000 kPa",837.4 ± 1.1 kg/m3
same,mass density,"[1]; 298.15 K, 20000 kPa",814.2 ± 1 kg/m3
same,mass density,"[1]; 298.15 K, 25000 kPa",817.6 ± 1 kg/m3
same,mass density,"[1]; 298.15 K, 30000 kPa",820.9 ± 1 kg/m3
same,mass density,"[1]; 298.15 K, 35000 kPa",824 ± 1.1 kg/m3
same,mass density,"[1]; 298.15 K, 40000 kPa",827.1 ± 1.1 kg/m3
same,mass density,"[1]; 313.15 K, 20000 kPa",803.1 ± 1 kg/m3
same,mass density,"[1]; 313.15 K, 25000 kPa",806.9 ± 1 kg/m3
same,mass density,"[1]; 313.15 K, 30000 kPa",810.4 ± 1 kg/m3
same,mass density,"[1]; 313.15 K, 35000 kPa",813.7 ± 1.1 kg/m3
same,mass density,"[1]; 313.15 K, 40000 kPa",817 ± 1.1 kg/m3
same,vapor or sublimation pressure,[1]; 319.65 K,10 ± 0.28 kPa
same,vapor or sublimation pressure,[1]; 327.25 K,15 ± 0.32 kPa
same,mass density,"[1]; 328.15 K, 20000 kPa",792 ± 1 kg/m3
same,mass density,"[1]; 328.15 K, 25000 kPa",795.8 ± 1 kg/m3
same,mass density,"[1]; 328.15 K, 30000 kPa",799.6 ± 1.1 kg/m3
same,mass density,"[1]; 328.15 K, 35000 kPa",803.1 ± 1.1 kg/m3
same,mass density,"[1]; 328.15 K, 40000 kPa",806.6 ± 1.1 kg/m3
same,vapor or sublimation pressure,[1]; 332.95 K,20 ± 0.4 kPa
same,vapor or sublimation pressure,[1]; 337.45 K,25 ± 0.49 kPa
same,vapor or sublimation pressure,[1]; 341.25 K,30 ± 0.55 kPa
same,vapor or sublimation pressure,[1]; 343.55 K,33.33 ± 0.6 kPa
same,vapor or sublimation pressure,[1]; 344.65 K,35 ± 0.66 kPa
same,vapor or sublimation pressure,[1]; 347.65 K,40 ± 0.71 kPa
same,vapor or sublimation pressure,[1]; 350.35 K,45 ± 0.79 kPa
same,vapor or sublimation pressure,[1]; 352.75 K,50 ± 0.86 kPa
same,vapor or sublimation pressure,[1]; 355.05 K,55 ± 0.93 kPa
same,vapor or sublimation pressure,[1]; 357.05 K,60 ± 1 kPa
same,vapor or sublimation pressure,[1]; 359.05 K,65 ± 1 kPa
same,vapor or sublimation pressure,[1]; 359.65 K,66.66 ± 1.1 kPa
same,vapor or sublimation pressure,[1]; 360.85 K,70 ± 1.2 kPa
same,vapor or sublimation pressure,[1]; 362.55 K,75 ± 1.2 kPa
same,vapor or sublimation pressure,[1]; 364.15 K,80 ± 1.3 kPa
same,vapor or sublimation pressure,[1]; 365.65 K,85 ± 1.3 kPa
same,vapor or sublimation pressure,[1]; 367.15 K,90 ± 1.5 kPa
same,vapor or sublimation pressure,[1]; 370.05 K,101.33 ± 1.6 kPa
CCCO [propan-1-ol] + CC12CCC(CC1)C(C)(C)O2,mass density,"[2]; 283.15 K, 20000 kPa",825.1 ± 1 kg/m3
same,mass density,"[2]; 283.15 K, 25000 kPa",828.4 ± 1 kg/m3
same,mass density,"[2]; 283.15 K, 30000 kPa",831.5 ± 1 kg/m3
same,mass density,"[2]; 283.15 K, 35000 kPa",834.5 ± 1 kg/m3
same,mass density,"[2]; 283.15 K, 40000 kPa",837.4 ± 1.1 kg/m3
same,mass density,"[2]; 298.15 K, 20000 kPa",814.2 ± 1 kg/m3
same,mass density,"[2]; 298.15 K, 25000 kPa",817.6 ± 1 kg/m3
same,mass density,"[2]; 298.15 K, 30000 kPa",820.9 ± 1 kg/m3
same,mass density,"[2]; 298.15 K, 35000 kPa",824 ± 1.1 kg/m3
same,mass density,"[2]; 298.15 K, 40000 kPa",827.1 ± 1.1 kg/m3
same,mass density,"[2]; 313.15 K, 20000 kPa",803.1 ± 1 kg/m3
same,mass density,"[2]; 313.15 K, 25000 kPa",806.9 ± 1 kg/m3
same,mass density,"[2]; 313.15 K, 30000 kPa",810.4 ± 1 kg/m3
same,mass density,"[2]; 313.15 K, 35000 kPa",813.7 ± 1.1 kg/m3
same,mass density,"[2]; 313.15 K, 40000 kPa",817 ± 1.1 kg/m3
same,mass density,"[2]; 328.15 K, 20000 kPa",792 ± 1 kg/m3
same,mass density,"[2]; 328.15 K, 25000 kPa",795.8 ± 1 kg/m3
same,mass density,"[2]; 328.15 K, 30000 kPa",799.6 ± 1.1 kg/m3
same,mass density,"[2]; 328.15 K, 35000 kPa",803.1 ± 1.1 kg/m3
same,mass density,"[2]; 328.15 K, 40000 kPa",806.6 ± 1.1 kg/m3
